Earlier results, collected in patent EP3628310A1, “PHARMACEUTICAL COMPOSITION COMPRISING SOLID DISPERSIONS OF AMORPHOUS CLADRIBINE AND PHARMACEUTICALLY ACCEPTABLE WATER SOLUBLE CARRIER” (Synbias Pharma AG, priority 2018, dated 2020).
Like-named read-outs stand apart in the source and are kept apart here.

calculated half time T1/2 (pH 1, 37°C): 22.2 min
2-CdA content (pH 1, after 2 h of heating to 37°C): 2%
2-CdA remains in solution (pH 2, 37°, after 6 h): 13%
calculated half time T1/2 (pH 2, 37°C): 96 min
SMILES: Nc1nc(Cl)nc2c1ncn2[C@H]1C[C@H](O)[C@@H](CO)O1 [Tablet 2-CdA, 2-chloro-2'-deoxyadenosine]
